Results: ChEMBL document CHEMBL1148405, “Prediction of ligand binding affinity and orientation of xenoestrogens to the estrogen receptor by molecular dynamics simulations and the linear interaction energy method” (J Med Chem, 2004)

Biological target: Estrogen receptor (Ovis aries, UniProt P49885+Q9TU15)
Experiment: Displacement of [3H]-estradiol (E2) from sheep uterine estrogen receptor

SMILES	Kd
Brc1ccc(-c2ccc(Br)cc2)cc1	> 0.0003 M l-1
O=c1c(-c2ccc(O)cc2)coc2cc(O)ccc12 [DAIDZEIN]	5.9e-6 M l-1
Oc1ccc2c(cc3ccc4cccc5ccc2c3c45)c1O	0.000014 M l-1
Brc1ccccc1-c1ccccc1Br	0.00016 M l-1
CC(=O)C1CCC2C3CCC4=CC(O)CCC4(C)C3CCC12C (stereo not given)	> 0.0003 M l-1
Oc1ccc2ccc3c4ccccc4cc4ccc1c2c43	1.1e-6 M l-1
Oc1ccc(C2COc3cc(O)c(O)cc3C2)cc1 (stereo not given)	0.000011 M l-1
CCC1Cc2cc(O)ccc2C2=C1c1ccc(O)cc1CC2CC (stereo not given)	3e-9 M l-1
Oc1ccc2ccc3c4ccccc4ccc3c2c1	4e-6 M l-1
Oc1ccc2c(ccc3c4ccccc4ccc23)c1O	8.8e-7 M l-1
